Measured values reported in US20250230193A1, “CYCLIC COMPOUND HAVING SELECTIVE KRAS INHIBITORY EFFECT ON HRAS AND NRAS” (CHUGAI SEIYAKU KABUSHIKI KAISHA, priority 2022, published 2025).

Experiments:
[1] = molecular target: GDP-bound NRAS wild-type protein (Homo sapiens, UniProt P01111); experiment: Binding to NRAS by surface plasmon resonance (SPR), Single Cycle Kinetics; settings: SPR, GDP-bound NRAS wild-type vs GDP-bound KRAS wild-type
[2] = molecular target: GDP-bound HRAS wild-type protein (Homo sapiens, UniProt P01112); experiment: Binding to HRAS by surface plasmon resonance (SPR), Single Cycle Kinetics; settings: SPR, GDP-bound HRAS wild-type vs GDP-bound KRAS wild-type
Sequence of GDP-bound HRAS wild-type protein (P01112 whole entry): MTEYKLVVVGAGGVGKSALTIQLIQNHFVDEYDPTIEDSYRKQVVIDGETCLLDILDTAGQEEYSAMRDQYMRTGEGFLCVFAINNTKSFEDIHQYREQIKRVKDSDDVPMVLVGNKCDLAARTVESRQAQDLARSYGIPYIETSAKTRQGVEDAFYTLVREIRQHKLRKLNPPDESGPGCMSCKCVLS

Sequence of GDP-bound NRAS wild-type protein (P01111 whole entry): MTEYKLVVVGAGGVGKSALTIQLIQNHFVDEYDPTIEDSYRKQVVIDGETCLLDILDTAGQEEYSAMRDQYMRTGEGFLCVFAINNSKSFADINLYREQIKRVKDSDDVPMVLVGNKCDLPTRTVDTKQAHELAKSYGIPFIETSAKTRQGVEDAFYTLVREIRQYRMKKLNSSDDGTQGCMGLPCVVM

SMILES	NRAS/KRAS (ratio of KD value with respect to NRAS to KD value with respect to KRAS) [1]	HRAS/KRAS (ratio of KD value with respect to HRAS to KD value with respect to KRAS) [2]
CCCOC[C@H]1C(=O)N[C@@H]([C@@H](C)CC)C(=O)N(C)CC(=O)N(C)[C@H]2C/C=C\CCN(C2=O)[C@@H](Cc2ccc(C)cc2)C(=O)N(C)CC(=O)N[C@@H](CCc2ccc(C(F)(F)F)c(Cl)c2)C(=O)N2C[C@@H](C)C[C@H]2C(=O)NC2(CC(C)(C)C2)C(=O)N(C)[C@@H](C2CCCC2)C(=O)N(C)[C@H](C(=O)N(C)CC)CC(=O)N1C [PP2467]	A (a compound having 10 or more and less than 20 is denoted as A)	B (a compound having 3 or more and less than 10 is denoted as B)
CCO[C@@H]1C[C@H]2C(=O)NC3(CC(C)(C)C3)C(=O)N(C)[C@@H](C(CC)CC)C(=O)N(C)[C@H](C(=O)N(C)C)CC(=O)N(C)[C@@H](COC)C(=O)N[C@@H]([C@@H](C)CC)C(=O)N(C)CC(=O)N(C)[C@H]3C/C=C\CCN(C3=O)[C@@H](CC3CCCCC3)C(=O)N(C)CC(=O)N[C@@H](CCc3ccc(C(F)(F)F)c(Cl)c3)C(=O)N2C1 [PP2468]	AA (a compound having 20 or more is denoted as AA)	A (a compound having 10 or more and less than 20 is denoted as A)
CCCOC[C@H]1C(=O)N[C@@H]([C@@H](C)CC)C(=O)N(C)CC(=O)N(C)[C@H]2C/C=C\CCN(C2=O)[C@@H](Cc2ccc(C)cc2)C(=O)N(C)CC(=O)N[C@@H](CCc2ccc(C(F)(F)F)c(Cl)c2)C(=O)N2C[C@H](OCC)C[C@H]2C(=O)NC2(CC(C)(C)C2)C(=O)N(C)[C@@H](C2CCCC2)C(=O)N(C)[C@H](C(=O)N(C)CC)CC(=O)N1C [PP2469]	A (a compound having 10 or more and less than 20 is denoted as A)	B (a compound having 3 or more and less than 10 is denoted as B)
CCOC[C@H]1C(=O)N[C@@H]([C@@H](C)CC)C(=O)N(C)CC(=O)N(C)[C@H]2C/C=C\CCN(C2=O)[C@@H](CC2CCCCC2)C(=O)N(C)CC(=O)N[C@@H](CCc2ccc(C(F)(F)F)c(OC)c2)C(=O)N2C[C@H](OCC)C[C@H]2C(=O)NC2(CC(C)(C)C2)C(=O)N(C)[C@@H](C(CC)CC)C(=O)N(C)[C@H](C(=O)N(C)C)CC(=O)N1C [PP2470]	A (a compound having 10 or more and less than 20 is denoted as A)	A (a compound having 10 or more and less than 20 is denoted as A)
CCCOC[C@H]1C(=O)N[C@@H]([C@@H](C)CC)C(=O)N(C)CC(=O)N(C)[C@H]2C/C=C\CCN(C2=O)[C@@H](Cc2ccc(C)cc2)C(=O)N(C)CC(=O)N[C@@H](CCc2cc(F)c(C(F)(F)F)c(F)c2)C(=O)N2C[C@@H](C)C[C@H]2C(=O)NC2(CC(C)(C)C2)C(=O)N(C)[C@@H](C2CCCC2)C(=O)N(C)[C@H](C(=O)N(C)CC)CC(=O)N1C [PP2471]	A (a compound having 10 or more and less than 20 is denoted as A)	A (a compound having 10 or more and less than 20 is denoted as A)
CCCOC[C@H]1C(=O)N[C@@H]([C@@H](C)CC)C(=O)N(C)CC(=O)N(C)[C@H]2C/C=C\CCN(C2=O)[C@@H](CC2CCC(F)(F)CC2)C(=O)N(C)CC(=O)N[C@@H](CCc2cc(F)c(C(F)(F)F)c(F)c2)C(=O)N2C[C@H](OCC)C[C@H]2C(=O)NC2(CC(C)(C)C2)C(=O)N(C)[C@@H](C(CC)CC)C(=O)N(C)[C@H](C(=O)N(C)C)CC(=O)N1C [PP2472]	A (a compound having 10 or more and less than 20 is denoted as A)	A (a compound having 10 or more and less than 20 is denoted as A)
CCOC[C@H]1C(=O)N[C@@H]([C@@H](C)CC)C(=O)N(C)CC(=O)N(C)[C@H]2C/C=C\CCN(C2=O)[C@@H](CC2CCC(F)(F)CC2)C(=O)N(C)CC(=O)N[C@@H](CCc2ccc(C(F)(F)F)c(Cl)c2)C(=O)N2C[C@@H](C)C[C@H]2C(=O)NC2(CC(C)(C)C2)C(=O)N(C)[C@@H](C(CC)CC)C(=O)N(C)[C@H](C(=O)N(C)C)CC(=O)N1C [PP2475]	AA (a compound having 20 or more is denoted as AA)	A (a compound having 10 or more and less than 20 is denoted as A)
CCO[C@@H]1C[C@H]2C(=O)NC3(CC(C)(C)C3)C(=O)N(C)[C@@H](C(CC)CC)C(=O)N(C)[C@H](C(=O)N(C)C)CC(=O)N(C)[C@@H](C(C)C)C(=O)N[C@@H]([C@@H](C)CC)C(=O)N(C)CC(=O)N(C)[C@H]3C/C=C\CCN(C3=O)[C@@H](CC3CCC(F)(F)CC3)C(=O)N(C)CC(=O)N[C@@H](CCc3ccc(C(F)(F)F)c(OC)c3)C(=O)N2C1 [PP2477]	A (a compound having 10 or more and less than 20 is denoted as A)	A (a compound having 10 or more and less than 20 is denoted as A)
CCOC[C@H]1C(=O)N[C@@H]([C@@H](C)CC)C(=O)N(C)CC(=O)N(C)[C@H]2C/C=C\CCN(C2=O)[C@@H](CC2CCCCC2)C(=O)N(C)CC(=O)N[C@@H](CCc2cc(F)c(C(F)(F)F)c(F)c2)C(=O)N2C[C@H](OCC)C[C@H]2C(=O)NC2(CC(C)(C)C2)C(=O)N(C)[C@@H](C(CC)CC)C(=O)N(C)[C@H](C(=O)N(C)C)CC(=O)N1C [PP2479]	AA (a compound having 20 or more is denoted as AA)	A (a compound having 10 or more and less than 20 is denoted as A)
CCO[C@@H]1C[C@H]2C(=O)NC3(CC(C)(C)C3)C(=O)N(C)[C@@H](C(CC)CC)C(=O)N(C)[C@H](C(=O)N(C)C)CC(=O)N(C)[C@@H](CC3CC3)C(=O)N[C@@H]([C@@H](C)CC)C(=O)N(C)CC(=O)N(C)[C@H]3C/C=C\CCN(C3=O)[C@@H](CC3CCC(F)(F)CC3)C(=O)N(C)CC(=O)N[C@@H](CCc3ccc(C(F)(F)F)c(OC)c3)C(=O)N2C1 [PP2480]	A (a compound having 10 or more and less than 20 is denoted as A)	A (a compound having 10 or more and less than 20 is denoted as A)
CCO[C@@H]1C[C@H]2C(=O)NC3(CC(C)(C)C3)C(=O)N(C)[C@@H](C(CC)CC)C(=O)N(C)[C@H](C(=O)N(C)C)CC(=O)N(C)[C@@H](C(C)C)C(=O)N[C@@H]([C@@H](C)CC)C(=O)N(C)CC(=O)N(C)[C@H]3C/C=C\CCN(C3=O)[C@@H](CC3CCC(F)(F)CC3)C(=O)N(C)CC(=O)N[C@@H](CCc3cc(F)c(C(F)(F)F)c(F)c3)C(=O)N2C1 [PP2481]	A (a compound having 10 or more and less than 20 is denoted as A)	A (a compound having 10 or more and less than 20 is denoted as A)
CCC[C@H]1C(=O)N[C@@H]([C@@H](C)CC)C(=O)N(C)CC(=O)N(C)[C@H]2C/C=C\CCN(C2=O)[C@@H](CC2CCC(F)(F)CC2)C(=O)N(C)CC(=O)N[C@@H](CCc2ccc(C(F)(F)F)c(OC)c2)C(=O)N2C[C@H](OCC)C[C@H]2C(=O)NC2(CC(C)(C)C2)C(=O)N(C)[C@@H](C(CC)CC)C(=O)N(C)[C@H](C(=O)N(C)C)CC(=O)N1C [PP2482]	A (a compound having 10 or more and less than 20 is denoted as A)	A (a compound having 10 or more and less than 20 is denoted as A)
CCCOC[C@H]1C(=O)N[C@@H]([C@@H](C)CC)C(=O)N(C)CC(=O)N(C)[C@H]2C/C=C\CCN(C2=O)[C@@H](CC2CCC(F)(F)CC2)C(=O)N(C)CC(=O)N[C@@H](CCc2ccc(C(F)(F)F)c(OC)c2)C(=O)N2C[C@@H](C)C[C@H]2C(=O)NC2(CC(C)(C)C2)C(=O)N(C)[C@@H](C(CC)CC)C(=O)N(C)[C@H](C(=O)N(C)C)CC(=O)N1C [PP2483]	A (a compound having 10 or more and less than 20 is denoted as A)	A (a compound having 10 or more and less than 20 is denoted as A)
CCCOC[C@H]1C(=O)N[C@@H]([C@@H](C)CC)C(=O)N(C)CC(=O)N(C)[C@H]2C/C=C\CCN(C2=O)[C@@H](CC2CCC(F)(F)CC2)C(=O)N(C)CC(=O)N[C@@H](CCc2ccc(C(F)(F)F)c(Cl)c2)C(=O)N2C[C@H](OCC)C[C@H]2C(=O)NC2(CC(C)(C)C2)C(=O)N(C)[C@@H](C(CC)CC)C(=O)N(C)[C@H](C(=O)N(C)C)CC(=O)N1C [PP2484]	A (a compound having 10 or more and less than 20 is denoted as A)	A (a compound having 10 or more and less than 20 is denoted as A)
CCO[C@@H]1C[C@H]2C(=O)NC3(CC(C)(C)C3)C(=O)N(C)[C@@H](C(CC)CC)C(=O)N(C)[C@H](C(=O)N(C)C)CC(=O)N(C)[C@@H](CC3CC3)C(=O)N[C@@H]([C@@H](C)CC)C(=O)N(C)CC(=O)N(C)[C@H]3C/C=C\CCN(C3=O)[C@@H](CC3CCC(F)(F)CC3)C(=O)N(C)CC(=O)N[C@@H](CCc3cc(F)c(C(F)(F)F)c(F)c3)C(=O)N2C1 [PP2485]	A (a compound having 10 or more and less than 20 is denoted as A)	A (a compound having 10 or more and less than 20 is denoted as A)
CCOC[C@H]1C(=O)N[C@@H]([C@@H](C)CC)C(=O)N(C)CC(=O)N(C)[C@H]2C/C=C\CCN(C2=O)[C@@H](CC2CCCCC2)C(=O)N(C)CC(=O)N[C@@H](CCc2ccc(C(F)(F)F)c(Cl)c2)C(=O)N2C[C@H](OCC)C[C@H]2C(=O)NC2(CC(C)(C)C2)C(=O)N(C)[C@@H](C(CC)CC)C(=O)N(C)[C@H](C(=O)N(C)C)CC(=O)N1C [PP2488]	A (a compound having 10 or more and less than 20 is denoted as A)	A (a compound having 10 or more and less than 20 is denoted as A)
